Experimental data taken from US9951063B2, “8-(piperazin-1-yl)-1,2,3,4-tetrahydro-isoquinoline derivatives” (IDORSIA PHARMACEUTICALS LTD, priority 2014, dated 2018).

Target: human CXCR3A (Homo sapiens (Human), UniProt P49682)
Assay: FLIPR assay (inhibition of CXCL10-induced calcium signal)
Assay type: cell-based
Details: engineered CHO-K1 cells expressing human CXCR3A coupled to Galpha(16); Fluo-4-AM; CXCL10 agonist 20 nM; mean values where determined several times
Summary of the method: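 CHO-K1 cells expressing human CXCR3A coupled to Gα16 were loaded with Fluo-4-AM for 1 h in HBSS/20 mM Hepes pH 7.4 with probenecid. Compound was added, then CXCL10 (20 nM as dispensed). Baseline-subtracted peak fluorescence gave inhibition curves and IC50, averaged over repeats.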

Chain of human CXCR3A (P49682 whole entry): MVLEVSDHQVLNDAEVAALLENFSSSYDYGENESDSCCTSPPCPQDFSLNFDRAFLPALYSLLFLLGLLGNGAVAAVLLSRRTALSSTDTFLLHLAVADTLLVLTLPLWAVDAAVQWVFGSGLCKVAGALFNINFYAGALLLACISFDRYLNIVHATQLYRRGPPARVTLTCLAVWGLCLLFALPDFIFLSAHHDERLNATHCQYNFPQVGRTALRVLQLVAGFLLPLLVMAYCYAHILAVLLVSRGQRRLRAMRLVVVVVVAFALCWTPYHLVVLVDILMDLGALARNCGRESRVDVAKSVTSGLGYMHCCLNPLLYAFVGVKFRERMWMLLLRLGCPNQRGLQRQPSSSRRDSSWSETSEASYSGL

IC50 [nM]	Compound
12.2	C[C@@H]1CN(c2cccc3c2CN(c2nccs2)CC3)CCN1C(=O)Cn1cnc2cccnc21 [Example 113, 2-Imidazo[4,5-b]pyridin-3-yl-1-[(R)-2-methyl-4-(2-thiazol-2-yl-1,2,3,4-tetrahydro-isoquinolin-8-yl)-piperazin-1-yl]-ethanone]
9.53	Cc1csc(N2CCc3cccc(N4CCN(C(=O)Cn5cnc6cccnc65)[C@H](C)C4)c3C2)n1 [Example 114, 2-Imidazo[4,5-b]pyridin-3-yl-1-{(R)-2-methyl-4-[2-(4-methyl-thiazol-2-yl)-1,2,3,4-tetrahydro-isoquinolin-8-yl]-piperazin-1-yl}-ethanone]
13.3	C[C@@H]1CN(c2cccc3c2CN(c2ncc(-c4ccccc4)s2)CC3)CCN1C(=O)Cn1cnc2cccnc21 [Example 115, 2-Imidazo[4,5-b]pyridin-3-yl-1-{(R)-2-methyl-4-[2-(5-phenyl-thiazol-2-yl)-1,2,3,4-tetrahydro-isoquinolin-8-yl]-piperazin-1-yl}-ethanone]
15.1	Cc1nc(N2CCc3cccc(N4CCN(C(=O)Cn5cnc6cccnc65)[C@H](C)C4)c3C2)sc1C [Example 116, 1-{(R)-4-[2-(4,5-Dimethyl-thiazol-2-yl)-1,2,3,4-tetrahydro-isoquinolin-8-yl]-2-methyl-piperazin-1-yl}-2-imidazo[4,5-b]pyridin-3-yl-ethanone]
3.7	C[C@@H]1CN(c2cccc3c2CN(c2nc(C#N)cs2)CC3)CCN1C(=O)Cn1cnc2cccnc21 [Example 117, 2-{8-[(R)-4-(2-Imidazo[4,5-b]pyridin-3-yl-acetyl)-3-methyl-piperazin-1-yl]-3,4-dihydro-1H-isoquinolin-2-yl}-thiazole-4-carbonitrile]
6.49	COc1ncc(N2CCc3cccc(N4CCN(C(=O)Cn5cnc6cccnc65)[C@H](C)C4)c3C2)cn1 [Example 118, 2-Imidazo[4,5-b]pyridin-3-yl-1-{(R)-4-[2-(2-methoxy-pyrimidin-5-yl)-1,2,3,4-tetrahydro-isoquinolin-8-yl]-2-methyl-piperazin-1-yl}-ethanone]
10.9	COc1ccc(N2CCc3cccc(N4CCN(C(=O)Cn5cnc6cccnc65)[C@H](C)C4)c3C2)nn1 [Example 119, 2-Imidazo[4,5-b]pyridin-3-yl-1-{(R)-4-[2-(6-methoxy-pyridazin-3-yl)-1,2,3,4-tetrahydro-isoquinolin-8-yl]-2-methyl-piperazin-1-yl}-ethanone]
2.03	COc1cncc(N2CCc3cccc(N4CCN(C(=O)Cn5cnc6cccnc65)[C@H](C)C4)c3C2)n1 [Example 120, 2-Imidazo[4,5-b]pyridin-3-yl-1-{(R)-4-[2-(6-methoxy-pyrazin-2-yl)-1,2,3,4-tetrahydro-isoquinolin-8-yl]-2-methyl-piperazin-1-yl}-ethanone]
3.39	COc1nc(OC)nc(N2CCc3cccc(N4CCN(C(=O)Cn5cnc6cccnc65)[C@H](C)C4)c3C2)n1 [Example 121, 1-{(R)-4-[2-(4,6-Dimethoxy-[1,3,5]triazin-2-yl)-1,2,3,4-tetrahydro-isoquinolin-8-yl]-2-methyl-piperazin-1-yl}-2-imidazo[4,5-b]pyridin-3-yl-ethanone]
27.9	COc1nccc(N2CCc3cccc(N4CCN(C(=O)Cn5cnc6cccnc65)[C@H](C)C4)c3C2)n1 [Example 122, 2-Imidazo[4,5-b]pyridin-3-yl-1-{(R)-4-[2-(2-methoxy-pyrimidin-4-yl)-1,2,3,4-tetrahydro-isoquinolin-8-yl]-2-methyl-piperazin-1-yl}-ethanone]
4.71	CCOc1ncc(N2CCc3cccc(N4CCN(C(=O)Cn5cnc6cccnc65)[C@H](C)C4)c3C2)cn1 [Example 123, 1-{(R)-4-[2-(2-Ethoxy-pyrimidin-5-yl)-1,2,3,4-tetrahydro-isoquinolin-8-yl]-2-methyl-piperazin-1-yl}-2-imidazo[4,5-b]pyridin-3-yl-ethanone]
34.4	C[C@@H]1CN(c2cccc3c2CN(c2nc(-c4ccccc4)cs2)CC3)CCN1C(=O)Cn1cnc2cccnc21 [Example 124, 2-Imidazo[4,5-b]pyridin-3-yl-1-{(R)-2-methyl-4-[2-(4-phenyl-thiazol-2-yl)-1,2,3,4-tetrahydro-isoquinolin-8-yl]-piperazin-1-yl}-ethanone]
47.4	Cc1nc(C)n(CC(=O)N2CCN(c3cccc4c3CN(c3cnc(C(F)(F)F)nc3)CC4)C[C@H]2C)n1 [Example 125, 2-(3,5-Dimethyl-[1,2,4]triazol-1-yl)-1-{(R)-2-methyl-4-[2-(2-trifluoromethyl-pyrimidin-5-yl)-1,2,3,4-tetrahydro-isoquinolin-8-yl]-piperazin-1-yl}-ethanone]
3.98	Cc1nc(C)n(CC(=O)N2CCN(c3cccc4c3CN(c3cnc(C5CC5)nc3)CC4)C[C@H]2C)n1 [Example 126, 1-{(R)-4-[2-(2-Cyclopropyl-pyrimidin-5-yl)-1,2,3,4-tetrahydro-isoquinolin-8-yl]-2-methyl-piperazin-1-yl}-2-(3,5-dimethyl-[1,2,4]triazol-1-yl)-ethanone]
33.1	CCOc1ncc(N2CCc3cccc(N4CCN(C(=O)Cn5nc(C)nc5C)[C@H](C)C4)c3C2)cn1 [Example 127, 2-(3,5-Dimethyl-[1,2,4]triazol-1-yl)-1-{(R)-4-[2-(2-ethoxy-pyrimidin-5-yl)-1,2,3,4-tetrahydro-isoquinolin-8-yl]-2-methyl-piperazin-1-yl}-ethanone]
7.94	CCOc1ncc(N2CCc3cccc(N4CCN(C(=O)Cn5nc(C)cc5C)[C@H](C)C4)c3C2)cn1 [Example 128, 2-(3,5-Dimethyl-pyrazol-1-yl)-1-{(R)-4-[2-(2-ethoxy-pyrimidin-5-yl)-1,2,3,4-tetrahydro-isoquinolin-8-yl]-2-methyl-piperazin-1-yl}-ethanone]
3.1	CCOc1ncc(N2CCc3c(F)ccc(N4CCN(C(=O)Cn5cnc6cccnc65)[C@H](C)C4)c3C2)cn1 [Example 129, 1-{(R)-4-[2-(2-Ethoxy-pyrimidin-5-yl)-5-fluoro-1,2,3,4-tetrahydro-isoquinolin-8-yl]-2-methyl-piperazin-1-yl}-2-imidazo[4,5-b]pyridin-3-yl-ethanone]
5.7	CCOc1ncc(N2CCc3c(F)ccc(N4CCN(C(=O)Cn5nc(C)cc5C)[C@H](C)C4)c3C2)cn1 [Example 130, 2-(3,5-Dimethyl-pyrazol-1-yl)-1-{(R)-4-[2-(2-ethoxy-pyrimidin-5-yl)-5-fluoro-1,2,3,4-tetrahydro-isoquinolin-8-yl]-2-methyl-piperazin-1-yl}-ethanone]
24.3	CCOc1ncc(N2CCc3c(F)ccc(N4CCN(C(=O)Cn5nc(C)nc5C)[C@H](C)C4)c3C2)cn1 [Example 131, 2-(3,5-Dimethyl-[1,2,4]triazol-1-yl)-1-{(R)-4-[2-(2-ethoxy-pyrimidin-5-yl)-5-fluoro-1,2,3,4-tetrahydro-isoquinolin-8-yl]-2-methyl-piperazin-1-yl}-ethanone]
58.9	Cc1nc(C)n(CC(=O)N2CCN(c3ccc(F)c4c3CN(c3cnc(C(F)(F)F)nc3)CC4)C[C@H]2C)n1 [Example 132, 2-(3,5-Dimethyl-[1,2,4]triazol-1-yl)-1-{(R)-4-[5-fluoro-2-(2-trifluoromethyl-pyrimidin-5-yl)-1,2,3,4-tetrahydro-isoquinolin-8-yl]-2-methyl-piperazin-1-yl}-ethanone]
5.42	Cc1nc(C)n(CC(=O)N2CCN(c3ccc(F)c4c3CN(c3cnc(C5CC5)nc3)CC4)C[C@H]2C)n1 [Example 133, 1-{(R)-4-[2-(2-Cyclopropyl-pyrimidin-5-yl)-5-fluoro-1,2,3,4-tetrahydro-isoquinolin-8-yl]-2-methyl-piperazin-1-yl}-2-(3,5-dimethyl-[1,2,4]triazol-1-yl)-ethanone]
52.1	CCOc1ncc(N2CCc3cc(C(F)(F)F)cc(N4CCN(C(=O)Cn5cnc6cccnc65)[C@H](C)C4)c3C2)cn1 [Example 134, 1-{(R)-4-[2-(2-Ethoxy-pyrimidin-5-yl)-6-trifluoromethyl-1,2,3,4-tetrahydro-isoquinolin-8-yl]-2-methyl-piperazin-1-yl}-2-imidazo[4,5-b]pyridin-3-yl-ethanone]
116	C[C@@H]1CN(c2cccc3c2CN(C(=O)OCc2ccccc2)CC3)CCN1C(=O)Cn1cccn1 [Example 135, 8-[(R)-3-Methyl-4-(2-pyrazol-1-yl-acetyl)-piperazin-1-yl]-3,4-dihydro-1H-isoquinoline-2-carboxylic acid benzyl ester]
33.2	Cc1nc(C)n(CC(=O)N2CCN(c3cccc4c3CN(C(=O)OCc3ccccc3)CC4)C[C@H]2C)n1 [Example 136, 8-{(R)-4-[2-(3,5-Dimethyl-[1,2,4]triazol-1-yl)-acetyl]-3-methyl-piperazin-1-yl}-3,4-dihydro-1H-isoquinoline-2-carboxylic acid benzyl ester]
9.1	O=C(Cn1cnc2cccnc21)N1CCN(c2cccc3c2CN(C(=O)OCc2ccccc2)CC3)CC1 [Example 137, 8-[4-(2-Imidazo[4,5-b]pyridin-3-yl-acetyl)-piperazin-1-yl]-3,4-dihydro-1H-isoquinoline-2-carboxylic acid benzyl ester]
12.4	O=C(Cn1ccc2cccnc21)N1CCN(c2cccc3c2CN(C(=O)OCc2ccccc2)CC3)CC1 [Example 138, 8-[4-(2-Pyrrolo[2,3-b]pyridin-1-yl-acetyl)-piperazin-1-yl]-3,4-dihydro-1H-isoquinoline-2-carboxylic acid benzyl ester]
21.7	Cn1c(=O)n(CC(=O)N2CCN(c3cccc4c3CN(C(=O)OCc3ccccc3)CC4)CC2)c2ccccc21 [Example 139, 8-{4-[2-(3-Methyl-2-oxo-2,3-dihydro-benzoimidazol-1-yl)-acetyl]-piperazin-1-yl}-3,4-dihydro-1H-isoquinoline-2-carboxylic acid benzyl ester]
51.2	Cn1c(=O)n(CC(=O)N2CCN(c3cccc4c3CN(C(=O)c3ccccc3)CC4)CC2)c2ccccc21 [Example 140, 1-{2-[4-(2-Benzoyl-1,2,3,4-tetrahydro-isoquinolin-8-yl)-piperazin-1-yl]-2-oxo-ethyl}-3-methyl-1,3-dihydro-benzoimidazol-2-one]
